Test results reported in ChEMBL document CHEMBL6071135, “New resorcylic acid derivatives of Lysimachia tengyuehensis against MRSA and VRE by interfering with bacterial metabolic imbalance” (Eur J Med Chem, 2024).
The source made the active and inactive calls.

Assays:
[1] = Toxicity in Kunming mouse assessed as morphological abnormalities at 4 mg/kg administered daily and measured after 7 days; assay type: organism-based; conditions: in vivo, 168 h, time 7 day
Enterococcus faecalis [2] = assay: Induction of morphological changes in vancomycin-resistant Enterococcus faecalis ATCC51299 assessed as appearance of ruptured bacterial surface at 4 times MIC measured for 5 hrs by field emission scanning electron microscopy based analysis; assay type: functional, organism-based
Staphylococcus aureus [3] = assay: Antibacterial activity against methicillin resistant Staphylococcus aureus infected in female Kunming mouse model of skin infection assessed as reduction in wound size at 4 mg/kg administered daily pre-infected for 4 hrs followed by compound administration for 7 days; assay type: functional, organism-based; conditions: time 7.0 day
Enterococcus faecalis [4] = assay: Antimicrobial activity against vancomycin-resistant Enterococcus faecalis ATCC51299 assessed as reduction in bacterial growth in presence of phosphatidylglycerol by checkerboard broth dilution method; assay type: functional, organism-based
Staphylococcus aureus [5] = assay: Antibacterial activity against methicillin-resistant Staphylococcus aureus at sub-MIC concentration measured after 24 hrs by CLSI based broth microdilution method; assay type: functional, organism-based
Staphylococcus aureus [6] = assay: Antibacterial activity against methicillin-resistant Staphylococcus aureus measured after 20 passages by broth microdilution method; assay type: functional, organism-based
Staphylococcus aureus [7] = assay: Antibacterial activity against methicillin resistant Staphylococcus aureus infected in female Kunming mouse model of skin infection assessed as reduction in bacterial load of wound at 4 mg/kg administered daily pre-infected for 4 hrs followed by compound administration for 7 days; assay type: functional, organism-based; conditions: time 7.0 day
Staphylococcus aureus [8] = assay: Antibacterial activity against methicillin resistant Staphylococcus aureus infected in female Kunming mouse model of skin infection assessed as increase in neovascularization at 4 mg/kg administered daily pre-infected for 4 hrs followed by compound administration for 7 days; assay type: functional, organism-based; conditions: time 7.0 day
Staphylococcus aureus [9] = assay: Antibacterial activity against methicillin resistant Staphylococcus aureus infected in female Kunming mouse model of skin infection assessed as reduction in inflammatory cell infiltration at 4 mg/kg administered daily pre-infected for 4 hrs followed by compound administration for 7 days; assay type: functional, organism-based; conditions: time 7.0 day
Enterococcus faecalis [10] = assay: Antibacterial activity against vancomycin-resistant Enterococcus faecalis ATCC51299 measured after 24 hrs by CLSI based broth microdilution method; assay type: functional
Staphylococcus aureus [11] = assay: Induction of morphological changes in methicillin-resistant Staphylococcus aureus assessed as appearance of flocculated bacterial surface at 4 times MIC measured for 5 hrs by field emission scanning electron microscopy based analysis; assay type: functional, organism-based
Staphylococcus aureus [12] = assay: Antibacterial activity against methicillin resistant Staphylococcus aureus infected in female Kunming mouse model of skin infection assessed as suppression of purulent secretion at 4 mg/kg administered daily pre-infected for 4 hrs followed by compound administration for 7 days; assay type: functional, organism-based; conditions: time 7.0 day
RAW264.7 = assay: Cytotoxicity against mouse RAW264.7 cells at 16 ug/ml incubated for 24 hrs by MTT assay; assay type: toxicity, cell-based; conditions: raw264.7, 24 h, dose 16 µg/ml
Enterococcus faecalis [13] = assay: Antibiofilm activity in vancomycin-resistant Enterococcus faecalis ATCC51299 assessed as increase in biofilm destruction at 1 times MIC incubated for 24 hrs by crystal violet staining based analysis relative to control; assay type: functional
Enterococcus faecalis [14] = assay: Antibacterial activity against vancomycin-resistant Enterococcus faecalis ATCC51299 infected in female Kunming mouse model of abdominal infection assessed as decrease in bacterial load in peritoneal effusion at 4 mg/kg administered daily pre-infected for 12 hrs followed by compound administration for 3 days; assay type: functional, organism-based; conditions: time 3.0 day
Enterococcus faecalis [15] = assay: Antibacterial activity against vancomycin-resistant Enterococcus faecalis ATCC51299 infected in female Kunming mouse model of abdominal infection assessed as decrease in bacterial load in spleen at 4 mg/kg administered daily pre-infected for 12 hrs followed by compound administration for 3 days; assay type: functional, organism-based; conditions: time 3.0 day
Enterococcus faecalis [16] = assay: Antibacterial activity against vancomycin-resistant Enterococcus faecalis ATCC51299 infected in female Kunming mouse model of abdominal infection assessed as decrease in bacterial load in liver at 4 mg/kg administered daily pre-infected for 12 hrs followed by compound administration for 3 days; assay type: functional, organism-based; conditions: time 3.0 day
Enterococcus faecalis [17] = assay: (§1) Antibacterial activity against vancomycin-resistant Enterococcus faecalis ATCC51299 infected in female Kunming mouse model of abdominal infection assessed as decrease in granulocytes at 4 mg/kg administered daily pre-infected for 12 hrs followed by compound administration for 3 days; assay type: functional, organism-based; conditions: time 3.0 day
Enterococcus faecalis [18] = assay: Antibacterial activity against vancomycin-resistant Enterococcus faecalis ATCC51299 infected in female Kunming mouse model of abdominal infection assessed as decrease in bacterial load in kidney at 4 mg/kg administered daily pre-infected for 12 hrs followed by compound administration for 3 days; assay type: functional, organism-based; conditions: time 3.0 day
Enterococcus faecalis [19] = assay: as §1, with “inflammatory cell infiltration” for “granulocytes”; assay type: functional, organism-based; conditions: time 3.0 day
Staphylococcus aureus [20] = assay: Antibiofilm activity in methicillin-resistant Staphylococcus aureus assessed as increase in biofilm destruction at 1 times MIC incubated for 24 hrs by crystal violet staining based analysis relative to control; assay type: functional
Enterococcus faecalis [21] = assay: Antibacterial activity against vancomycin-resistant Enterococcus faecalis ATCC51299 infected in female Kunming mouse model of abdominal infection assessed as watery degeneration of hepatocytes at 4 mg/kg administered daily pre-infected for 12 hrs followed by compound administration for 3 days; assay type: functional, organism-based; conditions: time 3.0 day

C=CCCCCCCCCCCCc1cc(O)cc(O)c1C(=O)O
Non-Toxic: Activity [1] | Activity (RAW264.7)
4 µg/mL: MIC (Enterococcus faecalis [10])
inactive: Activity (Staphylococcus aureus [6])
active: Activity (Enterococcus faecalis [2]) | Activity (Staphylococcus aureus [3]) | Activity (Enterococcus faecalis [4]) | Activity (Staphylococcus aureus [5]) | Activity (Staphylococcus aureus [7]) | Activity (Staphylococcus aureus [8]) | Activity (Staphylococcus aureus [9]) | Activity (Staphylococcus aureus [11]) | Activity (Staphylococcus aureus [12])

C=CCCCCCCCCCCCc1cc(O)cc(O)c1
active: Activity (Enterococcus faecalis [2]) | Activity (Enterococcus faecalis [14]) | Activity (Enterococcus faecalis [4]) | Activity (Staphylococcus aureus [5]) | Activity (Enterococcus faecalis [15]) | Activity (Enterococcus faecalis [16]) | Activity (Enterococcus faecalis [17]) | Activity (Enterococcus faecalis [18]) | Activity (Enterococcus faecalis [19]) | Activity (Staphylococcus aureus [11]) | Activity (Enterococcus faecalis [21])
4 µg/mL: MIC (Enterococcus faecalis [10])
Non-Toxic: Activity (RAW264.7)
inactive: Activity (Staphylococcus aureus [6])
>50%: Activity (Enterococcus faecalis [13]) | Activity (Staphylococcus aureus [20])
